Data: patent US5972945A, “2-aminoalkylaminoquinolines; dopamine receptor subtype specific ligands” (Neurogen Corporation, priority 1998, dated 1999)

How the values were obtained:
M2 Muscarinic subtype = test: M2 muscarinic subtype assay essentially as in U.S. Pat. No. 5,093,333; type: binding
Method: (§1) Various compounds of the invention were also evaluated in M1 and M2 Muscarinic subtype assays essentially as set forth in U.S. Pat. No. 5,093,333.

M1 Muscarinic subtype = test: M1 muscarinic subtype assay essentially as in U.S. Pat. No. 5,093,333; type: binding
Method: as §1

D4 receptor = D4 receptor binding (3H-YM 09151-2 displacement); set-up: species or system African Green monkey; details: for D4: Table 2, compounds of U.S. Pat. No. 5,093,333 (Saab), parameter and unit not given; for Ki: Table 1, 0.5 nM 3H-YM 09151-2, COS cells with recombinant receptor
Method: (§2) Pellets of COS cells containing recombinantly produced D2 or D4 receptors from African Green monkey were used for the assays. The sample is homogenized in 100 volumes (w/vol) of 0.05 M Tris HCl buffer at 4° C. and pH 7.4. The sample is then centrifuged at 30,000×g and resuspended and rehomogenized. The sample is then centrifuged as described and the final tissue sample is frozen until use. The tissue is resuspended 1:20 (wt/vol) in 0.05 M Tris HCl buffer containing 100 mM NaCl.
(§3) Incubations are carried out at […] and contain 0.4 ml of tissue sample, 0.5 nM ^3 H-YM 09151-2 and the compound of interest in a total incubation of 1.0 ml. Nonspecific binding is defined as that binding found in the presence of […]; without further additions nonspecific binding is less than 20% of total binding. Binding characteristics of various compounds of the invention for D2 and D4 receptor subtypes are shown in Table 1 for […].

D2 receptor = biological target: T1, D2 receptor (Chlorocebus aethiops, UniProt P52702); test: D2 receptor binding (3H-YM 09151-2 displacement); set-up: species or system African Green monkey; details: Table 1; 0.5 nM 3H-YM 09151-2, COS cells with recombinant receptor
T1 construct: expressed in transfected cells; host or cells: COS cells
Method: as §2, §3

[1] = Table 2, compounds of U.S. Pat. No. 5,093,333 (Saab), parameter and unit not given

T1 sequence (P52702 whole entry): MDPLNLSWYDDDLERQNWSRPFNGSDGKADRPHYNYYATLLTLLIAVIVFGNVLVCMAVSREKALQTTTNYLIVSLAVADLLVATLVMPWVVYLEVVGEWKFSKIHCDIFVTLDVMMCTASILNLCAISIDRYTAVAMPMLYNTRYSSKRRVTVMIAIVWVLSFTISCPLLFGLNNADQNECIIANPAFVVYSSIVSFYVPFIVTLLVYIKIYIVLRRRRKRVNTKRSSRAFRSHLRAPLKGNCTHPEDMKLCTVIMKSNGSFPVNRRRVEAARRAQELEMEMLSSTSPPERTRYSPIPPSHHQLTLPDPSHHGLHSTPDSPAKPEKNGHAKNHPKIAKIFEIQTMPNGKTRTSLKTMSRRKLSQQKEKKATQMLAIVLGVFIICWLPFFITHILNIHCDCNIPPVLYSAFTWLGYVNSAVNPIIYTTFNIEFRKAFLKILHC

Cc1cc(NCCCN2CCOCC2)nc2ccccc12
M2 (M2 Muscarinic subtype; [1]): 2500
M1 (M1 Muscarinic subtype; [1]): 1200
D4 (D4 receptor): > 1000

Fc1cnc(N2CCN(CCNC3=Nc4ccccc4CC3)CC2)nc1 [Compound 3, 2-3,4-dihydroquinoly(2-(4-(5-fluoropyrimidin-2-yl)piperazinyl)ethyl)amine]
M2 (M2 Muscarinic subtype; Table 1, parameter not stated): 144 nM
M1 (M1 Muscarinic subtype; Table 1, parameter not stated): 128 nM
Ki (D4 receptor): 8 nM

Cc1cc(NCCCN2CCN(c3ncccn3)CC2)nc2ccccc12 [Compound 22, (4-methyl(2-quinolyl))(3-(4-(pyrimidin-2-yl)piperazinyl)propyl)amine]
Ki (D2 receptor): 3300 nM
Ki (D4 receptor): 10 nM

c1ccc2nc(NCCCN3CCOCC3)ccc2c1 [Saab Example 2]
M2 (M2 Muscarinic subtype; [1]): 11600
M1 (M1 Muscarinic subtype; [1]): 2500
D4 (D4 receptor): > 1000

Cc1cc(NCCCN2CCCC2=O)nc2ccccc12 [Saab Example 7]
M2 (M2 Muscarinic subtype; [1]): 20000
M1 (M1 Muscarinic subtype; [1]): 1300
D4 (D4 receptor): > 1000

Cc1cccc(N2CCN(CCCNc3ccc4ccccc4n3)CC2)c1C [Compound 21, (3-(4-(2,3-dimethylphenyl)piperazinyl)propyl)2-quinolylamine]
Ki (D2 receptor): > 100 nM
Ki (D4 receptor): 22 nM

Cc1cc(NCCCN2CCN(C)CC2)nc2ccccc12 [Saab Example 3]
M2 (M2 Muscarinic subtype; [1]): 2800
M1 (M1 Muscarinic subtype; [1]): 600
D4 (D4 receptor): > 1000

c1ccc(N2CCN(CCNC3=Nc4ccccc4CC3)CC2)nc1 [Compound 2, 2-3,4-dihdroquinolyl(2-(4-(2-pyridyl)piperazinyl)ethyl)amine]
Ki (D4 receptor): 30 nM
